Columns and labels:
[1] = tested on: alloreactive T cells; assay: Cytokine production of alloreactive T cells stimulated with alloantigen; assay type: cell-based; details: treated with ATM inhibiting agent in addition to alloantigen; preliminary data
[2] = tested on: other PI-3 kinase-like kinase family members; details: cited from earlier work
[3] = tested on: ATM targets including p53, H2AX and NBS1; details: cited from earlier work
[4] = tested on: graft vs. host disease (GVHD); assay: GVHD after BMT: lethally irradiated Balb/c mice given C57BL/6 bone marrow and treated splenocytes; assay type: in vivo, mouse
Description: To test this, Balb/c mice were lethally irradiated one day prior to BMT with C57BL/6 bone marrow. 48 Hours after BMT, mice received splenocytes treated with allogeneic stimulators, allogeneic stimulators and KU55933, or no stimulators and KU55933.

[5] = tested on: C57BL/6 T cells; assay: Stimulation of T cells with anti-CD3 and CD28 in the presence of KU-55933 (annexin-V/CFSE flow cytometry); assay type: cell-based, mouse
Description: Cells were then labeled for 20 minutes with 2 μM 5(6)-Carboxyfluorescein diacetate N-succinimidyl ester (CFSE, Sigma-Aldrich) in Hank's balanced salt solution (HBSS, Mediatech, Herndon, Va.). Cells were plated at a concentration of 2-5×10^6/ml in Dulbecco's modified eagle's medium (DMEM (Mediatech) supplemented with 15% heat-inactivated fetal calf serum (Sigma-Aldrich, St. Louis, Mo.), penicillin (100 U/ml), streptomycin (100 μg/ml), 2 mM L-glutamine, 10 mM Hepes, 0.1 mM nonessential amino acids, 1 mM sodium pyruvate (Mediatech) (complete DMEM). Cells were treated with 1 μg/ml anti-CD3 antibody (2C11 (30)) and 1 μg/ml anti-CD28 antibody (37.51, Gross, et al., J. Immunol. 149:380 (1992)). Cells were cultured at 37 C, 5% CO2 for the indicated time. For studies of Atm−/− T cell proliferation in response to mitogens, purified T cells were cultured with 2 μg/ml Concanavalin A or 10 ng/ml PMA and 1 μg/m ionomycin.
Stimulation of T cells in the Presence of KU-55933: T cells were purified from C57BL/6 mice (Jackson Laboratories) and re-suspended at 1.5×10^6 cells/ml in complete DMEM with 1 μg/10^6 cells anti-CD3 and CD28 and the indicated concentration of KU-55933 (KuDos Pharmaceuticals) or the same volume of DMSO (Sigma-Aldrich). Some cultures were in addition treated with 4 mM N-acetyl cysteine (Sigma-Aldrich).
Flow Cytometry: Cells were harvested, washed in HBSS and stained with Annexin-V phycoerythrin (BD Biosciences), or Annexin V-biotin (R&D Systems) in addition to streptavidin conjugated phycoerythrin according to the manufacturer's instructions. Cells were then stained with anti-CD4-APC (RM4-5, BD Biosciences) or anti-CD8-APC (53-6.7 BD Biosciences) and 7-actinomycin D (Sigma-Aldrich) or propidium iodide (Sigma-Aldrich). All analysis was performed using. FloJo software (TreeStar Inc).

[6] = biological target: ATR (Homo sapiens, UniProt Q13535); details: 3 mM caffeine; cited from earlier work
[7] = tested on: C57BL/6 T cells; assay: Stimulation of T cells with anti-CD3 and CD28 in the presence of caffeine (annexin-V/CFSE flow cytometry); assay type: cell-based, mouse
Description: Cells were then labeled for 20 minutes with 2 μM 5(6)-Carboxyfluorescein diacetate N-succinimidyl ester (CFSE, Sigma-Aldrich) in Hank's balanced salt solution (HBSS, Mediatech, Herndon, Va.). Cells were plated at a concentration of 2-5×10^6/ml in Dulbecco's modified eagle's medium (DMEM (Mediatech) supplemented with 15% heat-inactivated fetal calf serum (Sigma-Aldrich, St. […] Cells were treated with 1 μg/ml anti-CD3 antibody (2C11 (30)) and 1 μg/ml anti-CD28 antibody (37.51, Gross, et al., J. Immunol. 149:380 (1992)). […] For studies of Atm−/− T cell proliferation in response to mitogens, purified T cells were cultured with 2 μg/ml Concanavalin A or 10 ng/ml PMA and 1 μg/m ionomycin. Stimulation of T cells in the Presence of Caffeine: […] Some cultures were, in addition, treated with 2 mM N-acetyl cysteine (Sigma-Aldrich). Flow Cytometry: Cells were harvested, washed in HBSS and stained with Annexin-V phycoerythrin (BD Biosciences), or Annexin V-biotin (R&D Systems) in addition to streptavidin conjugated phycoerythrin according to the manufacturer's instructions. Cells were then stained with anti-CD4-APC (RM4-5, BD Biosciences) or anti-CD8-APC (53-6.7 BD Biosciences) and 7-actinomycin D (Sigma-Aldrich) or propidium iodide (Sigma-Aldrich). All analysis was performed using. FloJo software (TreeStar Inc).

[8] = biological target: ATM (Homo sapiens, UniProt Q13315); details: cited from earlier work
[9] = tested on: Atm deficient T cells; assay: Stimulation of Atm deficient T cells with anti-CD3 and CD28 with or without NAC; assay type: cell-based, mouse; details: 2 mM NAC
Source text: Mice: Heterozygous 129S6/SvEvTac-Atm^tm1-Awb mice […] were purchased from the Jackson Laboratory (Bar Harbor, Me.). An independently generated Atm knockout mouse model was used to confirm our observations (Borghesani, et al., Proc. Nat'l Acad. Sci. USA 97:3336 (2000)). All mice were housed under microisolator conditions in autoclaved cages and were maintained on irradiated feed and autoclaved acidified drinking water. All sentinel mice housed in the same colony were free of viral antibodies. Four- to 6-week-old mice were used in all experiments.
Purification and Stimulation of T Cells: Splenocytes were harvested from 4-6 week old Atm−/− mice or wild-type littermates bred in our animal facility. In some experiments C57BL/6 mice were used as a source of wild-type T cells. Red blood cells were lysed using ACK lysing buffer (Cambrex, Walkerville, Md.) for 3 minutes at room temperature. In experiments in which T cells were purified, splenocytes were incubated with anti-CD4 (GK1.5, Dialynas, et al., J. Immunol. 131:2445 (1983)) and anti-CD8 (2.43, Sarmiento, et al., J. Immunol. 125:2665 (1980)) antibodies for 30 min at 4° C. Cells were then washed and incubated with magnetic beads conjugated to anti-rat IgG antibody, prior to positive selection by MACS according to the manufacturer's instructions (Miltenyi Biotech, USA Auburn Calif.). […]

[10] = C57BL/6 T cells stimulated with anti-CD3 and CD28

Sequence of ATM (Q13315 whole entry, species assumed): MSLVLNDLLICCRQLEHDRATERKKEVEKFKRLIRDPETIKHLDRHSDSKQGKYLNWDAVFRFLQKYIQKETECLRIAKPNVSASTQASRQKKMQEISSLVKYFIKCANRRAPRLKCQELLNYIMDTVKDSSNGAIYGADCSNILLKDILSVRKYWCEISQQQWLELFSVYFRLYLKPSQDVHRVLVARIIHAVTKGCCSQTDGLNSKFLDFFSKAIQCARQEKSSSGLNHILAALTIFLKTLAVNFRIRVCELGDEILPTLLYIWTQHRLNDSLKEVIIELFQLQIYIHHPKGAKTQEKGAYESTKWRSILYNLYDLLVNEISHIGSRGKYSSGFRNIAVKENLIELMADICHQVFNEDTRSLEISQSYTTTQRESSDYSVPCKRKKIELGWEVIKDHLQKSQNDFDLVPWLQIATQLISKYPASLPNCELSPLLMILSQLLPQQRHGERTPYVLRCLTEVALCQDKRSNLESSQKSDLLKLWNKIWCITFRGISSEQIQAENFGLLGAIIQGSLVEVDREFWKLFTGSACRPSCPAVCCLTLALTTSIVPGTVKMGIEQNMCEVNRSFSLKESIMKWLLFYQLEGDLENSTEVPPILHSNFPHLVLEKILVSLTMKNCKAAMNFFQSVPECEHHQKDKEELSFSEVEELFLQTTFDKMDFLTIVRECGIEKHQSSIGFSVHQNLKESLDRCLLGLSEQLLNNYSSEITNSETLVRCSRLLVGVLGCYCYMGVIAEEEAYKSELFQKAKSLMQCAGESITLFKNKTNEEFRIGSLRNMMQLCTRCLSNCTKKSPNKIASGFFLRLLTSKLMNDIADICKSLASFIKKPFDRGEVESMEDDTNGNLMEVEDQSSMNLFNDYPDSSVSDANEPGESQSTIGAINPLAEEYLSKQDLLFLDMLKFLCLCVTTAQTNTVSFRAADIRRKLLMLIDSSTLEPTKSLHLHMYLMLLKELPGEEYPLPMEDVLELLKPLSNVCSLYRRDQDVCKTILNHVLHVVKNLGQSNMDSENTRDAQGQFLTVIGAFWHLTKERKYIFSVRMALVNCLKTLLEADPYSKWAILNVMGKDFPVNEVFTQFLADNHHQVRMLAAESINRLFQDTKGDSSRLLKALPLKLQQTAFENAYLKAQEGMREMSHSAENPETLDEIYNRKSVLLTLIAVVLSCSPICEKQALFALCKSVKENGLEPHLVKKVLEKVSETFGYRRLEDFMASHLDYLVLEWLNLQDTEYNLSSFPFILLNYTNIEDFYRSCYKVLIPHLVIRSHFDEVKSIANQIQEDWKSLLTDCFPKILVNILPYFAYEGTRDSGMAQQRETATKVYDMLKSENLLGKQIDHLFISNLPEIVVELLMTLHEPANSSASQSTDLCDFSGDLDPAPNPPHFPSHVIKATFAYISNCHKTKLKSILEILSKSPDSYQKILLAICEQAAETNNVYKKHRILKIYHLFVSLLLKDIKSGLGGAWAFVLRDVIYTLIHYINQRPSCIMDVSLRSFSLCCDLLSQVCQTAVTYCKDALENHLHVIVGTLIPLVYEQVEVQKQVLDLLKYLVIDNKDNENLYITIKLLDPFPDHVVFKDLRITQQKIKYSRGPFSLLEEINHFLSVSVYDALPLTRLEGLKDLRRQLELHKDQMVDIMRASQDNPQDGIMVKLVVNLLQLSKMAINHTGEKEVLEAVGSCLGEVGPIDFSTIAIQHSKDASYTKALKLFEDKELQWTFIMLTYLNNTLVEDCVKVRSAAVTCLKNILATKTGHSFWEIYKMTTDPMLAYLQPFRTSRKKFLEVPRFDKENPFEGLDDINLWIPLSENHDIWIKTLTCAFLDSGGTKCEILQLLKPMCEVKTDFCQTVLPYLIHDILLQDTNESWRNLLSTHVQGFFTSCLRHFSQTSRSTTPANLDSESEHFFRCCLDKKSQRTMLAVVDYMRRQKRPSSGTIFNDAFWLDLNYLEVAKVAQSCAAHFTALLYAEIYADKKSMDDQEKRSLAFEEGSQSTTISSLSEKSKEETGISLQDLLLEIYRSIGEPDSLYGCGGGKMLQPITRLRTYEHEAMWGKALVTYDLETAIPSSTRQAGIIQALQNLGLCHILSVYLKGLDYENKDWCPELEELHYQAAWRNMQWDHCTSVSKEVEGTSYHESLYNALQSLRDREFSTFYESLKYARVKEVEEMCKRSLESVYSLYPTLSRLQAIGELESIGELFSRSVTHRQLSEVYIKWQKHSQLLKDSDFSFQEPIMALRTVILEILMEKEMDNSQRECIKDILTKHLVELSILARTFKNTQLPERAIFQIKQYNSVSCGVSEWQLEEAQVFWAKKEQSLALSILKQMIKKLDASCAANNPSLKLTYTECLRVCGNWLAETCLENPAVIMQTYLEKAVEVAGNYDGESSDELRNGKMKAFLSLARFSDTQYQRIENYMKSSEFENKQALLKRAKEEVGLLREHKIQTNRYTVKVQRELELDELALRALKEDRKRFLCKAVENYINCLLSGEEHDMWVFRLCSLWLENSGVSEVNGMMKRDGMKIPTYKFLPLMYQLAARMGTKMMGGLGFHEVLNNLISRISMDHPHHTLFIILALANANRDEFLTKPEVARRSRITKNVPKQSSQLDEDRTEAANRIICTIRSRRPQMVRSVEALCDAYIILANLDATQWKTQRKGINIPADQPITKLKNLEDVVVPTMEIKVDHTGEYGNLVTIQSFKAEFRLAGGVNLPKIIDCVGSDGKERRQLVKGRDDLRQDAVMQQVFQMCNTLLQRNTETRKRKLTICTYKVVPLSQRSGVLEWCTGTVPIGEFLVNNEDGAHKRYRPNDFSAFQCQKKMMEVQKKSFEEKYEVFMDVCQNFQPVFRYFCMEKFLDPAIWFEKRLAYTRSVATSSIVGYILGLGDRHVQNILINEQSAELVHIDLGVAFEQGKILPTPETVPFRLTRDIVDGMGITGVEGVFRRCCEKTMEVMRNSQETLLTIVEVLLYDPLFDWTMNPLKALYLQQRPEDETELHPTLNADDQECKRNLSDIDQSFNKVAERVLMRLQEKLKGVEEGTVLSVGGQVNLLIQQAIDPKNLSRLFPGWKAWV

**Q.** Which “production of IL-2, IFN-g and IL-4 in response to alloantigen” value [1] does the source give for `O=c1cc(-c2cccc3c2Sc2ccccc2S3)oc(N2CCOCC2)c1` [KU-55933, 2-morpholin-4-yl-6-thianthren-1-yl-pyran-4-one] here?
**A.** fail to produce these cytokines

**Q.** And the “inhibition of other PI-3 kinase-like kinase family members” value [2]?
**A.** does not inhibit

**Q.** What about the “ionizing-radiation-dependent phosphorylation of known ATM targets” value [3] of the same compound?
**A.** abrogation

**Q.** What about the animals surviving long-term ([4]; recipients of splenocytes treated ex vivo with allogeneic stimulators and KU55933, given 48 hours after BMT) of the same compound?
**A.** three out of four

**Q.** What about the “development of GVHD (time)” value ([4]; recipients of unstimulated splenocytes treated with KU55933) of the same compound?
**A.** 30 to 40 days

**Q.** What about the “T cell proliferation versus untreated controls” value ([5]; 20 μM KU-55933, 48 and 72 hours after stimulation) of the same compound?
**A.** significantly less proliferation

**Q.** What about the “effect on cell viability” value ([5]; 20 μM KU-55933, 24 hours, anti-CD3 and CD28) of the same compound?
**A.** no effect

**Q.** What about the “KU-55933 concentration (as low as) that induced T cell apoptosis” value [5, 10] of the same compound?
**A.** 10 µM

**Q.** What about the “response of normal T cells exposed to anti-CD3 and anti-CD28” value ([5]; exposed to KU-55933) of the same compound?
**A.** undergo apoptosis

**Q.** What about the “frequency of T cells undergoing apoptosis with increasing concentration” value ([5]; increasing KU-55933 concentration, anti-CD3 and CD28) of the same compound?
**A.** dose dependent increase

**Q.** With `Cn1c(=O)c2c(ncn2C)n(C)c1=O` [caffeine] as the compound, how does the “inhibition of ATR function” value [6] read?
**A.** 50%

**Q.** And the “T cells remaining annexin-V negative” value ([7]; 2.5 mM caffeine, 48 and 72 hours after stimulation)?
**A.** only T cells which did not divide remained annexin-V negative

**Q.** And the “effect on cell viability” value ([7]; 2.5 mM caffeine, 24 hours, anti-CD3 and CD28)?
**A.** no effect

**Q.** And the “caffeine concentration (as low as) that induced T cell apoptosis” value [7, 10]?
**A.** 1 mM

**Q.** What about the “response of normal T cells exposed to anti-CD3 and anti-CD28” value ([7]; exposed to caffeine) of the same compound?
**A.** undergo apoptosis

**Q.** What about the “frequency of T cells undergoing apoptosis with increasing concentration” value ([7]; increasing caffeine concentration, anti-CD3 and CD28) of the same compound?
**A.** dose dependent increase

**Q.** What about the “ATM function in vitro” value ([8]; 1 mM caffeine) of the same compound?
**A.** inhibit ATM

**Q.** And the “inhibition of ATM function” value ([8]; 3 mM caffeine)?
**A.** 50%

**Q.** Which “proliferation of Atm deficient T cells, effect of NAC” value [9] does the source give for `CC(=O)N[C@@H](CS)C(=O)O` [NAC, N-acetyl cysteine] here?
**A.** restored the ability of Atm deficient T cells to undergo proliferation

**Q.** And the “apoptosis induced in the presence of caffeine, effect of NAC” value ([7]; 2 mM NAC added, 2.5 mM caffeine, anti-CD3 and CD28, normal T cells)?
**A.** prevented

**Q.** What about the “apoptosis induced in the presence of KU-55933, effect of NAC” value ([5]; NAC added (4 mM per method), 20 μM KU-55933, anti-CD3 and CD28, normal T cells) of the same compound?
**A.** prevented
